{"source": "patent US20210186960A1", "about": "“MODULATORS OF INDOLEAMINE 2,3-DIOXYGENASE” (GLAXOSMITHKLINE INTELLECTUAL PROPERTY DEVELOPMENT LIMITED, priority 2017, published 2021)", "origin": "cited, not measured here", "key": {"[1]": {"system": "conversion of T cells into CD4+FoxP3+ Tregs", "conditions": "co-culture of DCs and naive CD4+CD25- T cells; cited from earlier work"}, "[2]": {"system": "PANO2 pancreatic cells", "conditions": "orally dosed, cited from earlier work"}}}
{"compound": "NS(=O)(=O)NCCNc1nonc1C(=NO)Nc1ccc(F)c(Br)c1", "note": "[INCB204360]", "values": [{"measurement": "conversion of T cells into CD4+FoxP3+ Tregs", "setting": "[1]", "result": "blocked the conversion"}, {"measurement": "inhibition of tumor growth", "setting": "[2]; PANO2 syngeneic model, immunocompetent mice", "result": "significant dose-dependent inhibition of tumor growth"}, {"measurement": "effect on tumor growth", "setting": "[2]; same tumor implanted in immune-deficient mice", "result": "without effect"}]}
